# In US11547681B2, “N-acylethanolamide derivatives and uses thereof” (ELIEM THERAPEUTICS, INC., priority 2016, dated 2023):
# Key:
# in vitro [1] = conditions: both, human, 1 μM
# Procedure, shortened: (§1)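 LC-MS/MS tracked both dosed prodrug and expected drug PEA over 60 min (0, 10, 20, 30, 60 min samples) at 37 °C. Incubations held 1 μM test article in intestinal S9, cofactor-initiated after warm-up, stopped with ice-cold acidified acetonitrile.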
# in vitro [2] = conditions: male, Sprague-Dawley, rat, 1 μM
# Procedure, shortened: as §1
# in vitro [3] = conditions: male, CD-1, mouse, 1 μM
# Procedure, shortened: (§2)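 Test article at 1 μM final was incubated at 37° C with S9 reaction mixture, and the reaction was started by adding cofactor cocktail. Samples taken at 0, 10, 20, 30 and 60 min were quenched in acidified acetonitrile, and prodrug and PEA were measured by LC-MS/MS. Half-life came from single-phase exponential decay of percent remaining versus time 0.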
# in vitro [4] = conditions: male, Beagle, dog
# Procedure, shortened: as §2
smiles,measurement,setting,value
CCCCCCCCCCCCCCCC(=O)NCCOC(=O)CCC(=O)OC[C@H]1O[C@@](CO)(O[C@H]2O[C@H](CO)[C@@H](O)[C@H](O)[C@H]2O)[C@@H](O)[C@@H]1O [Compound I-7],"Concentration (μM) of analyte PEA, 0 min",in vitro [1]; 0 min,0.090 µM
same,"Concentration (μM) of analyte PEA, 10 min",in vitro [1]; 10 min,0.46 µM
same,"Concentration (μM) of analyte PEA, 20 min",in vitro [1]; 20 min,0.62 µM
same,"Concentration (μM) of analyte PEA, 30 min",in vitro [1]; 30 min,0.63 µM
same,"Concentration (μM) of analyte PEA, 60 min",in vitro [1]; 60 min,0.48 µM
same,"% Remaining of Initial (n = 1), 0 min","in vitro [1]; s9, 0 h",100%
same,"% Remaining of Initial (n = 1), 10 min","in vitro [1]; s9, 10 min",46%
same,"% Remaining of Initial (n = 1), 20 min","in vitro [1]; s9, 20 min",22%
same,"% Remaining of Initial (n = 1), 30 min","in vitro [1]; s9, 0.5 h",9.8%
same,"% Remaining of Initial (n = 1), 60 min","in vitro [1]; s9, 1 h",3.8%
same,"Concentration (μM) of analyte PEA, 0 min",in vitro [2]; 0 min,0.042 µM
same,"Concentration (μM) of analyte PEA, 10 min",in vitro [2]; 10 min,0.24 µM
same,"Concentration (μM) of analyte PEA, 20 min",in vitro [2]; 20 min,0.35 µM
same,"Concentration (μM) of analyte PEA, 30 min",in vitro [2]; 30 min,0.47 µM
same,"Concentration (μM) of analyte PEA, 60 min",in vitro [2]; 60 min,0.60 µM
same,"% Remaining of Initial (n = 1), 0 min","in vitro [2]; s9, 0 h",100%
same,"% Remaining of Initial (n = 1), 10 min","in vitro [2]; s9, 10 min",60%
same,"% Remaining of Initial (n = 1), 20 min","in vitro [2]; s9, 20 min",37%
same,"% Remaining of Initial (n = 1), 30 min","in vitro [2]; s9, 0.5 h",31%
same,"% Remaining of Initial (n = 1), 60 min","in vitro [2]; s9, 1 h",13%
same,"Concentration (μM) of analyte PEA, 0 min",in vitro [3]; 0 min,0.033 µM
same,"Concentration (μM) of analyte PEA, 10 min",in vitro [3]; 10 min,0.24 µM
same,"Concentration (μM) of analyte PEA, 20 min",in vitro [3]; 20 min,0.29 µM
same,"Concentration (μM) of analyte PEA, 30 min",in vitro [3]; 30 min,0.39 µM
same,"Concentration (μM) of analyte PEA, 60 min",in vitro [3]; 60 min,0.38 µM
same,"% Remaining of Initial (n = 1), 0 min","in vitro [3]; s9, 0 h",100%
same,"% Remaining of Initial (n = 1), 10 min","in vitro [3]; s9, 10 min",59%
same,"% Remaining of Initial (n = 1), 20 min","in vitro [3]; s9, 20 min",35%
same,"% Remaining of Initial (n = 1), 30 min","in vitro [3]; s9, 0.5 h",27%
same,"% Remaining of Initial (n = 1), 60 min","in vitro [3]; s9, 1 h",5.7%
same,"Concentration (μM) of analyte PEA, 0 min","in vitro [4]; 0 min, 1 μM",0.38 µM
same,"Concentration (μM) of analyte PEA, 10 min","in vitro [4]; 10 min, 1 μM",0.36 µM
same,"Concentration (μM) of analyte PEA, 20 min","in vitro [4]; 20 min, 1 μM",0.55 µM
same,"Concentration (μM) of analyte PEA, 30 min","in vitro [4]; 30 min, 1 μM",0.51 µM
same,"Concentration (μM) of analyte PEA, 60 min","in vitro [4]; 60 min, 1 μM",0.50 µM
same,"% Remaining of Initial (n = 1), 0 min","in vitro [4]; s9, 0 h, 1 μM",100%
same,"% Remaining of Initial (n = 1), 10 min","in vitro [4]; s9, 10 min, 1 μM",1.1%
same,"% Remaining of Initial (n = 1), 20 min","in vitro [4]; s9, 20 min, 1 μM",<1.0%
same,"% Remaining of Initial (n = 1), 30 min","in vitro [4]; s9, 0.5 h, 1 μM",<1.0%
same,"% Remaining of Initial (n = 1), 60 min","in vitro [4]; s9, 1 h, 1 μM",<1.0%
same,microsomal CLint at 1 μM,"in vitro [4]; s9, CLint (mL/min/mg protein)",452 µL/min/mg
same,half-life at 1 μM,"in vitro [4]; s9, Half-life (min)",1.5 min
